What was measured:
[1] = degradation time in vivo of ω-oxidation blocked analogue
Source text: ω-oxidation is believed to be the main pathway for degradation of the fatty acid analogues as described with a block in the X position. Experiments were thus performed where R′ was changed to block ω-oxidation, by introducing a triple bond at the methyl end of the fatty acid analogue. […] This is important for the use of the fatty acid analogues in pharmaceutical preparation, as it may potentiate the effects of the β-oxidizable fatty acid analogues by further slowing down their breakdown.

[2] = system: mitochondrial β-oxidation in the liver; assay: activity of mitochondrial β-oxidation in the liver of fatty acid analogues; details: in vivo
Source text: Although all fatty acid anagoges with an odd positioning of the β-oxidation blocker X away from the carboxylic end block β-oxidation, the extent of their biological effect may be variable. This is due to the difference in biological degradation time of the various compounds. The inventors have done experiments to show the effect of moving X further from the carboxylic fatty acid end. In these experiments the activity (in nmol/min/mg/protein) of mitochondrial β-oxidation in the liver of fatty acid analogues was measured with sulphur in the 3, 5 and 7 positions relative to the carboxyl end. The activities were 0.81 for sulphur in the 3rd position, 0.61 for sulphur in the 5th position, 0.58 for sulphur in the 7th position, and 0.47 for palmitic acid, the non β-oxidation blocking control. […] However, as the decline is great for going from the 3rd to 5th position, but small going from the 5th to 7th position, it is reasonable to assume that this decline will continue to be less as one moves out the chain, and thus that it will be very far out indeed before no effect (compared to the control) is seen at all.

Row | Compound | degradation time in vivo [1] | activity of mitochondrial β-oxidation in the liver [2]
1 | CC#CCCCCCCCCCCCSCC [3-thia-15-heptadecyn] | substantially increased degradation time | –
2 | CCCCCCCCCCCCCCCC(=O)O [palmitic acid] | – | 0.47 nmol/min/mg/protein

Source: patent US20120276212A1, “COMPOSITION COMPRISING PLANT AND/OR FISH OILS AND NON-OXIDIZABLE FATTY ACID ENTITIES” (LIFE SCIENCE NUTRITION AS, priority 2004, published 2012)
